Assay results reported in PMC11251039, “Harnessing cholesterol uptake of malaria parasites for therapeutic applications” (EMBO Molecular Medicine, 2024).
Several values for one entry are separate records, joined by “and”; a condition that tells them apart may be missing. Identical values can stand only once. Like-named read-outs stand apart in the source and are kept apart here.

Key:
[1] = test system: P. falciparum CAM3.II ring stages (0–3 h post invasion); assay: Plasmodium falciparum ring stage survival assay, resistant strain; assay type: cell-based; details: for Ring stage survival, individual data points (Figure 4C): CAM3.11, replicate experiments
Experimental: (§1) Following tight synchronisation using sorbitol and Percoll® floatation, ring stage CAM3.II and CAM3.IIREV parasites (0–3 h post invasion) at 1% parasitaemia and 2% haematocrit were incubated with 700 nM of compounds or solvent-only controls for exactly 6 h, before removing the drug, thoroughly washing in RPMI with HEPES, and returning to culture conditions for a further 66 h. Some cells were treated with 700 nM artesunate for 72 h as a no-growth control. DNA replication (indicating growth) was measured at the specified time using SYBR Safe DNA Stain. Microscope slide smears of each condition were stained with 10% v/v Giemsa and examined under a light microscope (×1000 magnification); with ‘viable’ (morphologically normal) and ‘non-viable’ (morphologically aberrant; vacuolated or pyknotic) parasites distinguished according to standard protocol (Witkowski et al, [2013]). Images were captured using a Leica ICC50 camera, with a resolution of 76 nm per pixel, and cropped from larger images using Fiji ImageJ.
(§2) Appendix Fraser/Curtis et al.
(§3) Cells were detached from a flask using 0.25% Trypsin with 0.2 g/L EDTA (Sigma T4049) and washed with culture media containing no phenol red. Cells were incubated with a serial dilution of each compound, or media/DMSO alone. The protein synthesis inhibitor cycloheximide (Sigma 01810) at 10 µg/mL was used as a positive control to determine background absorbance. 5,000 cells were seeded in each well. After 96 hours, 0.45 mg/mL methylthiazolyldiphenyl-tetrazolium bromide (MTT; Sigma M2128) was added and incubated for a further two hours, before mixing 1.1:1 with 10% w/v sodium dodecyl sulfate (SDS) to solubilise crystals and freezing the plate at -18 °C to stop the assay. Plates were defrosted at room temperature and absorbance was read at 570 nm in an Infinite M1000 pro plate reader […]
(§4) Plasmodium falciparum Ring Stage Survival Assay
(§5) Ring stage survival assays were conducted according to standard protocols with some modifications (27, 28). CAM3.11 and CAM3.11REV parasites were sorbitol synchronised twice, 12 hours apart, and then incubated for a further 30 hours until the majority of the parasites were mature schizonts (with clearly separated nuclei). Pelleted RBCs were incubated at 37 °C with heparinised RPMI for 15 minutes, and then centrifuged over 75% Percoll® in PBS for 15 minutes at 1,000 g. Mature schizonts were collected, washed with warm RPMI, and cultured for exactly three hours with fresh uRBCs and culture media. After 3 hours, the cultures were sorbitol synchronised and incubated in duplicate with 700 nM of artesunate, PAYb076a, GGA5, HJB8a53, a DMSO solvent-only control or media alone for exactly six hours, before removing the drug, washing in RPMI, and returning to culture conditions. Samples of each cell suspension were transferred to a -18 °C freezer at the start of the assay (time = 0) or treated for the entire 72 hours with 700 nM artesunate to determine background fluorescence under no-growth conditions. After a further 66 hours of incubation (totalling 72 hours), cells were […]
(§6) resuspended, and a sample from each well was transferred to a fresh plate and frozen at -18 °C.
(§7) Microscope slide smears were made using the remaining cells and stained with 10% v/v Giemsa. Plates were thawed and SYBR Safe DNA Gel Stain (final concentration 1/10,000) diluted in lysis buffer (as above) was added for DNA detection at 490 nm excitation / 520 nm emission on a FLUOstar Optima fluorescence plate reader. Parasite proliferation and viability were also assessed using Giemsa-stained smears examined under a light microscope (1,000× magnification); with ‘viable’ and ‘non-viable’ (vacuolated or pyknotic) parasites distinguished according to standard protocol. Images were captured using a Leica ICC50 camera, with a resolution of 76 nm per pixel.
(§8) Growth inhibition data were normalised by subtracting background fluorescence, […]

[2] = test system: P. falciparum CAM3.IIREV ring stages (0–3 h post invasion); assay: Plasmodium falciparum ring stage survival assay, susceptible revertant strain; assay type: cell-based; details: for Parasite morphology in Giemsa-stained smears: 700 nM, 6 h treatment, 66 h further growth, CAM3.IIREV susceptible; for Ring stage survival, individual data points (Figure 4C): CAM3.11REV, replicate experiments
Experimental: as §1, §2, §3, §4, §5, §6, §7, §8

[3] = test system: asexual P. falciparum 3D7 wild-type parasites; assay: P. falciparum asexual growth inhibition assay (SYBR Safe DNA replication); assay type: cell-based, Plasmodium falciparum; design: Figure 5B dose-response source data (growth, replicate values): unit not given here; details: for IC50: 72 h, read-out: IC50, P. falciparum asexual growth inhibition; for Figure 5B dose-response source data (growth, replicate values): individual replicates
Experimental: P. falciparum asexual parasite assays commenced with ring-stage parasites at 1% parasitaemia and 1% haematocrit. 200 nM chloroquine (Sigma C6628) or artesunate (Sigma A3731) was used as a no-growth control. DNA replication (indicating growth) was measured at the specified time using SYBR Safe DNA Gel Stain (Invitrogen 33102) and a fluorescence microplate reader (Smilkstein et al, [2004]; Spry et al, [2013]). […]
(§9) Growth and Viability Inhibition Assays:
(§10) Plasmodium falciparum Growth Inhibition Assays:
(§11) P. falciparum parasites were maintained under routine culture conditions in red blood cells and RPMI 1640-Hepes with Glutamax, supplemented with 10 mM D-glucose, 480 μM hypoxanthine, 20 μg/mL gentamicin, 0.375% (w/v) AlbuMAXTM II (Thermo Fisher 11021029), and 2.5% v/v heat-inactivated human serum (17). Cultures were maintained at 37 °C […]
wildtype parasites except for the ring stage survival assay, as specified. Cultures were synchronised with 5% w/v D-sorbitol (18).
Growth inhibition was investigated according to methods described by Smilkstein et al. (19) with modifications by Spry et al. (20). Compounds or solvent controls (DMSO, ethanol, or ethyl acetate) were serially diluted 2-fold across flat-bottom 96-well plates. Culture media without compound was used as a negative control. 200 nM chloroquine (Sigma C6628) or artesunate (Sigma A3731) was used as a positive control to determine background fluorescence. The parasitaemia of a culture containing predominantly ring stage parasites was counted by Giemsa smear. The parasitaemia was adjusted to 1% by addition of fresh uRBCs and added to the plate at a final haematocrit of 1%, with 200 µL per well. The plates were incubated at 37 °C under humid microaerophilic conditions. After 24, 48, or 72 hours, the plates were transferred to a -18 °C freezer to stop the assay and lyse cells. Plates were thawed and lysate was mixed 1:1 with SYBR Safe DNA Gel Stain (Invitrogen 33102) (final concentration 1/10,000) diluted in lysis buffer (20 mM TRIS, 5 mM EDTA, 0.008% w/v Saponin, 0.08% w/v Triton-X 100, pH 7.5). Fluorescence was detected at 490 nm excitation/ 520 nm emission on a FLUOstar Optima fluorescence plate reader (BMG Labtech).

[4] = test system: asexual P. falciparum CAM3.IIREV (Susceptible); assay: P. falciparum asexual growth inhibition assay, revertant strain; assay type: cell-based; details: Plasmodium falciparum, 72 h, read-out: IC50, P. falciparum asexual growth inhibition
Experimental: (§12) P. falciparum asexual parasite assays commenced with ring-stage parasites at 1% parasitaemia and 1% haematocrit. 200 nM chloroquine (Sigma C6628) or artesunate (Sigma A3731) was used as a no-growth control. DNA replication (indicating growth) was measured at the specified time using SYBR Safe DNA Gel Stain (Invitrogen 33102) and a fluorescence microplate reader (Smilkstein et al, [2004]; Spry et al, [2013]).
as §2, §9, §10, §11
(§13) Growth inhibition was investigated according to methods described by Smilkstein et al. (19) with modifications by Spry et al. (20). […] 200 nM chloroquine (Sigma C6628) or artesunate (Sigma A3731) was used as a positive control to determine background fluorescence. The parasitaemia of a culture containing predominantly ring stage parasites was counted by Giemsa smear. […] Fluorescence was detected at 490 nm excitation/ 520 nm emission on a FLUOstar Optima fluorescence plate reader (BMG Labtech).

[5] = test system: asexual P. falciparum CAM3.II (Resistant); assay: P. falciparum asexual growth inhibition assay, resistant strain; assay type: cell-based; details: Plasmodium falciparum, 72 h, read-out: IC50, P. falciparum asexual growth inhibition
Experimental: as §12, §2, §9, §10, §11, §13

[6] = test system: human embryonic kidney cells (HEK293); assay: Human embryonic kidney cell viability assay (MTT); assay type: cell-based; details: 96 h, HEK293; read-out: IC50, human embryonic kidney cell inhibition (viability)
Experimental: HEK293 cell viability assays commenced with 5000 cells per well. 10 µg/mL cycloheximide was used as a no-growth control. Metabolic capacity (indicating viability) was measured in an absorbance microplate reader after incubation with 0.45 mg/mL methylthiazolyldiphenyl-tetrazolium bromide (MTT; Sigma M2128) for 2 h followed by crystal solubilisation in SDS. […]
Human Embryonic Kidney Cell Viability Assays:
Human Embryonic Kidney Cell (HEK293) culture:
The HEK293 cell line was maintained under routine culture conditions in DMEM containing 3.7 g/L NaHCO3 supplemented with 10% FBS, 200 μM glutamine, 100 units/mL penicillin, and 100 μg/mL streptomycin at 37 °C in a humidified 5% CO2 incubator.
as §3, with “assay.” for “assay. Plates were defrosted at room temperature and absorbance was read at 570 nm in an Infinite M1000 pro plate reader”

[7] = 700 nM, 6 h treatment, 66 h further growth, CAM3.II resistant

Question: Which results are given for `CC(C)OC(=O)CCC(=O)OC1OC2OC3(C)CCC4C(C)CCC(C1C)C24OO3` (stereo not shown) [ART-link]?
Answer: Parasite morphology in Giemsa-stained smears [1, 7]: a combination of morphologically normal parasites (green arrows) and morphologically aberrant pyknotic or vacuolated forms; Ring stage survival, individual data points (Figure 4C) ([1]; listed as GGA5): 38.82 and -2.964 and -8.71 and 33.42; Parasite morphology in Giemsa-stained smears [2]: only morphologically aberrant parasites were present; Ring stage survival, individual data points (Figure 4C) ([2]; listed as GGA5): -11.62 and -13.91 and -17.49 and -9.785

Question: For `CC1CCC2C(C)C(OC(=O)CCC(=O)OC3CCC4C5CC=C6CC(O)CCC6(C)C5CCC34C)OC3OC4(C)CCC1C32OO4` (stereo not shown) [C-17-ART], which “Parasite morphology in Giemsa-stained smears” value [1, 7] is on record?
Answer: only aberrant, non-viable parasites were visible

Question: What about the “Ring stage survival, growth” value [1, 7] of the same compound?
Answer: complete growth inhibition

Question: And the “Ring stage survival, individual data points (Figure 4C)” value ([1]; listed as PAYb076a)?
Answer: 5.574 and -1.717 and 1.804 and -19.52

Question: What about the IC50 ([3]; Plasmodium falciparum, 3D7, 72 h, 3D7 (Susceptible)) of the same compound?
Answer: 10.6 nM

Question: What about the “Parasite morphology in Giemsa-stained smears” value [2] of the same compound?
Answer: only morphologically aberrant parasites were present

Question: What about the “Ring stage survival, individual data points (Figure 4C)” value ([2]; listed as PAYb076a) of the same compound?
Answer: -3.583 and -11.02 and -24.87 and -14.11

Question: What about the IC50 [4] of the same compound?
Answer: 11 nM

Question: And the IC50 [5]?
Answer: 10.5 nM

Question: For `CC(C)(C)OOC(C)(C)C` [Di-tert-butyl peroxide, di-tert-butyl peroxide, reference compound], which IC50 [6] is on record?
Answer: > 100000 nM

Question: What about the IC50 [3] of the same compound?
Answer: > 25000 nM

Question: What about the “Figure 5B dose-response source data (growth, replicate values)” value (“Figure 5B dose-response source data” for short) ([3]; Concentration 0.039063 uM) of the same compound?
Answer: 85.18 and 102.4 and 102.7

Question: And the “Figure 5B dose-response source data” value ([3]; Concentration 0.078125 uM)?
Answer: 74.12 and 92.74 and 101.2

Question: And the “Figure 5B dose-response source data” value ([3]; Concentration 0.15625 uM)?
Answer: 95.05 and 90.78 and 92.5 and 91.43 and 92.81 and 96.62 and 92.25 and 92.33 and 93.69

Question: What about the “Figure 5B dose-response source data” value ([3]; Concentration 0.1953125 uM) of the same compound?
Answer: 104.7 and 100.3 and 94.44

Question: And the “Figure 5B dose-response source data” value ([3]; Concentration 0.3125 uM)?
Answer: 87.88 and 89.77 and 89.55 and 85.58 and 96.69 and 99.28 and 97.57 and 87.06 and 96.72

Question: And the “Figure 5B dose-response source data” value ([3]; Concentration 0.390625 uM)?
Answer: 99.53 and 101.7 and 93.86

Question: What about the “Figure 5B dose-response source data” value ([3]; Concentration 0.625 uM) of the same compound?
Answer: 89.02 and 90.9 and 80.19 and 84.44 and 92.83 and 101.4 and 93.27 and 93.75 and 89.82

Question: What about the “Figure 5B dose-response source data” value ([3]; Concentration 0.78125 uM) of the same compound?
Answer: 99.16 and 101.8 and 97.31

Question: What about the “Figure 5B dose-response source data” value ([3]; Concentration 1.25 uM) of the same compound?
Answer: 89.1 and 88.53 and 87.02 and 94.06 and 87.75 and 98.34 and 95.66 and 89.13 and 92.05

Question: What about the “Figure 5B dose-response source data” value ([3]; Concentration 1.5625 uM) of the same compound?
Answer: 96.44 and 101 and 94.23

Question: What about the “Figure 5B dose-response source data” value ([3]; Concentration 2.5 uM) of the same compound?
Answer: 90.99 and 88.19 and 94.1 and 84.35 and 90.32 and 96.8 and 92.38 and 90.3 and 90.14

Question: What about the “Figure 5B dose-response source data” value ([3]; Concentration 3.125 uM) of the same compound?
Answer: 98.75 and 99.8 and 93.33

Question: And the “Figure 5B dose-response source data” value ([3]; Concentration 5 uM)?
Answer: 88.2 and 86.72 and 93.06 and 89.82 and 70.14 and 95.75 and 93.09 and 90.02 and 87.03

Question: What about the “Figure 5B dose-response source data” value ([3]; Concentration 6.25 uM) of the same compound?
Answer: 99.66 and 102.1 and 96.08

Question: What about the “Figure 5B dose-response source data” value ([3]; Concentration 10 uM) of the same compound?
Answer: 83.27 and 83.85 and 83.43 and 96.65 and 93.69 and 94.13 and 91.37 and 89.09 and 89.4

Question: What about the “Figure 5B dose-response source data” value ([3]; Concentration 12.5 uM) of the same compound?
Answer: 105.9 and 89.05 and 98.44

Question: And the “Figure 5B dose-response source data” value ([3]; Concentration 25 uM)?
Answer: 103.6 and 101.6 and 94.82
